Measurements: patent US20150105252A1, “SUBSTITUTED PYRAZOLES AS HERBICIDES” (E I DU PONT DE NEMOURS AND COMPANY, priority 2013, published 2015)

Columns and labels:
barnyardgrass [1] = test: Test A postemergence; format: in vivo, Echinochloa crus-galli
Outline: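 After sowing in a sand–loam mix, pots received compound preemergence by directed soil spray, or postemergence once plants reached the one- to two-leaf stage (2–10 cm). Formulation contained surfactant in a non-phytotoxic solvent. Injury was scored visually after ~10 greenhouse days, 0–100 scale.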

rice = test: Test B flood; format: in vivo, Oryza sativa; settings: 250 g ai/ha, visual rating on 0 to 100 scale (0 no effect, 100 complete control), 13 to 15 days
Outline: (§1)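 Response scored visually, 0–100 relative to controls, 13–15 days after the compound was applied into paddy water; plants were at the 2-leaf stage in pots kept flooded to 3 cm.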

ducksalad = test: Test B flood; format: in vivo, Heteranthera limosa; settings: 250 g ai/ha, visual rating on 0 to 100 scale (0 no effect, 100 complete control), 13 to 15 days
Outline: as §1

crabgrass, large = test: Test C preemergence; format: in vivo, Digitaria sanguinalis; settings: for Plant response rating (scale of 0 to 100), Crabgrass, Large: Preemergence; for Crabgrass, Large plant response rating / Plant response rating, Crabgrass, Large: preemergence; for Plant response rating, Crabgrass, Large: scale 0 to 100, 0 = no effect, 100 = complete control
Outline: (§2)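 Herbicidal effect is expressed as percent visual control (0–100) judged against untreated plants 13 to 15 days after treatment in the greenhouse. Preemergence pots contained seeds in a soil–sand blend; postemergence plants, 2–18 cm tall, grew in peat-based planting medium.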

morningglory = test: Test C preemergence; format: in vivo, Ipomoea coccinea; settings: for Plant response rating (scale of 0 to 100), Morningglory: Preemergence; for Morningglory plant response rating / Plant response rating, Morningglory: preemergence; for Plant response rating, Morningglory: scale 0 to 100, 0 = no effect, 100 = complete control
Outline: as §2

nutsedge, yellow [2] = test: Test C preemergence; format: in vivo, Cyperus esculentus; settings: for Plant response rating (scale of 0 to 100), Nutsedge, Yellow: Preemergence; for Nutsedge, Yellow plant response rating / Plant response rating, Nutsedge, Yellow: preemergence; for Plant response rating, Nutsedge, Yellow: scale 0 to 100, 0 = no effect, 100 = complete control
Outline: as §2

barnyardgrass [3] = test: Test C preemergence; format: in vivo, Echinochloa crus-galli; settings: for Plant response rating (scale of 0 to 100), Barnyardgrass: Preemergence; for Barnyardgrass plant response rating / Plant response rating, Barnyardgrass: preemergence; for Plant response rating, Barnyardgrass: scale 0 to 100, 0 = no effect, 100 = complete control
Outline: as §2

oilseed rape = test: Test C preemergence; format: in vivo, Brassica napus; settings: for Plant response rating (scale of 0 to 100), Oilseed Rape: Preemergence; for Oilseed Rape plant response rating / Plant response rating, Oilseed Rape: preemergence; for Plant response rating, Oilseed Rape: scale 0 to 100, 0 = no effect, 100 = complete control
Outline: as §2

velvetleaf = test: Test C preemergence; format: in vivo, Abutilon theophrasti; settings: for Plant response rating (scale of 0 to 100), Velvetleaf: Preemergence; for Velvetleaf plant response rating / Plant response rating, Velvetleaf: preemergence; for Plant response rating, Velvetleaf: scale 0 to 100, 0 = no effect, 100 = complete control
Outline: as §2

nutsedge, yellow [4] = test: Test C postemergence; format: in vivo, Cyperus esculentus; settings: for Plant response rating (scale of 0 to 100 where 0 is no effect and 100 is complete control), Nutsedge, Yellow: Postemergence, 31 g ai/ha, visually evaluated after 13 to 15 days; for Nutsedge, Yellow plant response rating / Plant response rating, Nutsedge, Yellow: postemergence; for Nutsedge, Yellow plant response rating: 62 g ai/ha, scale 0 to 100
Outline: as §2

chickweed = test: Test C postemergence; format: in vivo, Stellaria media; settings: for Plant response rating (scale of 0 to 100 where 0 is no effect and 100 is complete control), Chickweed: Postemergence, 31 g ai/ha, visually evaluated after 13 to 15 days; for Chickweed plant response rating / Plant response rating, Chickweed: postemergence; for Chickweed plant response rating: 62 g ai/ha, scale 0 to 100
Outline: as §2

[5] = Postemergence, 500 g ai/ha, 0 to 100 scale (0 no effect, 100 complete control)
[6] = postemergence, 125 g ai/ha, about 10 days, visual rating on 0 to 100 scale (0 no effect, 100 complete control)
[7] = 31 g ai/ha, visual rating, scale 0 to 100 (0 no effect, 100 complete control), 13 to 15 days
[8] = 62 g ai/ha, scale 0 to 100 (0 no effect, 100 complete control), 13 to 15 days
[9] = 125 g ai/ha, scale 0 to 100, 0 is no effect, 100 is complete control
[10] = 31 g ai/ha, scale 0 to 100 (0 no effect, 100 complete control), 13 to 15 days
[11] = 250 g ai/ha, scale 0 to 100 (0 no effect, 100 complete control)
[12] = 125 g ai/ha, scale 0 to 100, 0 no effect, 100 complete control
[13] = 250 g ai/ha, scale 0 to 100, 0 is no effect, 100 is complete control

Structure (SMILES) | Barnyardgrass plant response rating (barnyardgrass [1]; [5]) | Barnyardgrass plant response rating (barnyardgrass [1]; [6]) | Plant response rating, Rice (rice) | Plant response rating, Ducksalad (ducksalad) | Crabgrass, Large plant response rating (crabgrass, large; [7]) | Crabgrass, Large plant response rating (crabgrass, large; [8]) | Morningglory plant response rating (morningglory; [7]) | Morningglory plant response rating (morningglory; [8]) | Nutsedge, Yellow plant response rating (nutsedge, yellow [2]; [7]) | Nutsedge, Yellow plant response rating (nutsedge, yellow [2]; [8]) | Barnyardgrass plant response rating (barnyardgrass [3]; [8]) | Oilseed Rape plant response rating (oilseed rape; [7]) | Oilseed Rape plant response rating (oilseed rape; [8]) | Velvetleaf plant response rating (velvetleaf; [7]) | Velvetleaf plant response rating (velvetleaf; [8]) | Plant response rating (scale of 0 to 100 where 0 is no effect and 100 is complete control), Nutsedge, Yellow (nutsedge, yellow [4]) | Nutsedge, Yellow plant response rating (nutsedge, yellow [4]) | Plant response rating, Nutsedge, Yellow (nutsedge, yellow [4]; [11]) | Plant response rating, Nutsedge, Yellow (nutsedge, yellow [4]; [12]) | Plant response rating (scale of 0 to 100 where 0 is no effect and 100 is complete control), Chickweed (chickweed) | also measured
CCc1cc(C(=O)NOC(C)C)nn1Cc1ccnc(OC(F)F)c1 [Compound 126] | 100 | 90 | 20 | 95 | 90 | 100 | 55 | 70 | 25 | 45 | 100 | 85 | 100 | 65 | 85 | 5 | 5 | 15 | 5 | 60 | Plant response rating (scale of 0 to 100), Crabgrass, Large (crabgrass, large; 250 g ai/ha): 100; Crabgrass, Large plant response rating (crabgrass, large; [9]): 100; Plant response rating (scale of 0 to 100), Morningglory (morningglory; 250 g ai/ha): 100; Morningglory plant response rating (morningglory; [9]): 98; Plant response rating (scale of 0 to 100), Nutsedge, Yellow (nutsedge, yellow [2]; 250 g ai/ha): 90; Nutsedge, Yellow plant response rating (nutsedge, yellow [2]; [9]): 75; Plant response rating (scale of 0 to 100), Barnyardgrass (barnyardgrass [3]; 250 g ai/ha): 100; Barnyardgrass plant response rating (barnyardgrass [3]; [10]): 75; Barnyardgrass plant response rating (barnyardgrass [3]; [9]): 100; Plant response rating (scale of 0 to 100), Oilseed Rape (oilseed rape; 250 g ai/ha): 100; Oilseed Rape plant response rating (oilseed rape; [9]): 100; Plant response rating (scale of 0 to 100), Velvetleaf (velvetleaf; 250 g ai/ha): 100; Velvetleaf plant response rating (velvetleaf; [9]): 100; Chickweed plant response rating (chickweed): 70; Plant response rating, Chickweed (chickweed; [11]): 85; Plant response rating, Chickweed (chickweed; [12]): 80
CCCc1cc(C(=O)NCC(F)(F)F)nn1Cc1ccnc(OC(F)F)c1 [Compound 127] | 90 | 90 | 20 | 95 | 80 | 100 | 60 | 55 | 25 | 50 | 60 | 85 | 100 | 60 | 60 | 5 | 5 | 25 | 15 | 75 | Plant response rating (scale of 0 to 100), Crabgrass, Large (crabgrass, large; 250 g ai/ha): 100; Plant response rating, Crabgrass, Large (crabgrass, large; 125 g ai/ha, 13 to 15 days): 100; Plant response rating (scale of 0 to 100), Morningglory (morningglory; 250 g ai/ha): 100; Plant response rating, Morningglory (morningglory; 125 g ai/ha, 13 to 15 days): 100; Plant response rating (scale of 0 to 100), Nutsedge, Yellow (nutsedge, yellow [2]; 250 g ai/ha): 85; Plant response rating, Nutsedge, Yellow (nutsedge, yellow [2]; 125 g ai/ha, 13 to 15 days): 70; Plant response rating (scale of 0 to 100), Barnyardgrass (barnyardgrass [3]; 250 g ai/ha): 95; Barnyardgrass plant response rating (barnyardgrass [3]; [10]): 45; Plant response rating, Barnyardgrass (barnyardgrass [3]; 125 g ai/ha, 13 to 15 days): 95; Plant response rating (scale of 0 to 100), Oilseed Rape (oilseed rape; 250 g ai/ha): 100; Plant response rating, Oilseed Rape (oilseed rape; 125 g ai/ha, 13 to 15 days): 100; Plant response rating (scale of 0 to 100), Velvetleaf (velvetleaf; 250 g ai/ha): 100; Plant response rating, Velvetleaf (velvetleaf; 125 g ai/ha, 13 to 15 days): 100; Chickweed plant response rating (chickweed): 80; Plant response rating, Chickweed (chickweed; [11]): 80; Plant response rating, Chickweed (chickweed; [12]): 80
CCOc1cc(C(=O)NCC(F)(F)F)nn1Cc1ccnc(OC(F)F)c1 [Compound 128] | 100 | 100 | 30 | 95 | 100 | 95 | 75 | 70 | 45 | 75 | 90 | 100 | 100 | 5 | 100 | 5 | 5 | 25 | 10 | 70 | Plant response rating (scale of 0 to 100), Crabgrass, Large (crabgrass, large; 250 g ai/ha): 100; Plant response rating, Crabgrass, Large (crabgrass, large; 125 g ai/ha, 13 to 15 days): 100; Plant response rating (scale of 0 to 100), Morningglory (morningglory; 250 g ai/ha): 100; Plant response rating, Morningglory (morningglory; 125 g ai/ha, 13 to 15 days): 98; Plant response rating (scale of 0 to 100), Nutsedge, Yellow (nutsedge, yellow [2]; 250 g ai/ha): 90; Plant response rating, Nutsedge, Yellow (nutsedge, yellow [2]; 125 g ai/ha, 13 to 15 days): 80; Plant response rating (scale of 0 to 100), Barnyardgrass (barnyardgrass [3]; 250 g ai/ha): 100; Barnyardgrass plant response rating (barnyardgrass [3]; [10]): 80; Plant response rating, Barnyardgrass (barnyardgrass [3]; 125 g ai/ha, 13 to 15 days): 98; Plant response rating (scale of 0 to 100), Oilseed Rape (oilseed rape; 250 g ai/ha): 100; Plant response rating, Oilseed Rape (oilseed rape; 125 g ai/ha, 13 to 15 days): 100; Plant response rating (scale of 0 to 100), Velvetleaf (velvetleaf; 250 g ai/ha): 100; Plant response rating, Velvetleaf (velvetleaf; 125 g ai/ha, 13 to 15 days): 100; Chickweed plant response rating (chickweed): 75; Plant response rating, Chickweed (chickweed; [11]): 95; Plant response rating, Chickweed (chickweed; [12]): 85
CCCNC(=O)c1cc(OCC)n(Cc2ccnc(OC(F)F)c2)n1 [Compound 136] | 90 | 70 | 35 | 80 | 100 | 100 | 100 | 100 | 30 | 35 | 100 | 100 | 100 | 65 | 100 | 5 | 5 | 5 | 5 | 100 | Plant response rating, Crabgrass, Large (crabgrass, large; 125 g ai/ha, 13 to 15 days): 100; Crabgrass, Large plant response rating (crabgrass, large; [13]): 100; Plant response rating, Morningglory (morningglory; 125 g ai/ha, 13 to 15 days): 100; Morningglory plant response rating (morningglory; [13]): 100; Plant response rating, Nutsedge, Yellow (nutsedge, yellow [2]; 125 g ai/ha, 13 to 15 days): 50; Nutsedge, Yellow plant response rating (nutsedge, yellow [2]; [13]): 85; Barnyardgrass plant response rating (barnyardgrass [3]; [10]): 75; Plant response rating, Barnyardgrass (barnyardgrass [3]; 125 g ai/ha, 13 to 15 days): 100; Barnyardgrass plant response rating (barnyardgrass [3]; [13]): 100; Plant response rating, Oilseed Rape (oilseed rape; 125 g ai/ha, 13 to 15 days): 100; Oilseed Rape plant response rating (oilseed rape; [13]): 100; Plant response rating, Velvetleaf (velvetleaf; 125 g ai/ha, 13 to 15 days): 100; Velvetleaf plant response rating (velvetleaf; [13]): 100; Chickweed plant response rating (chickweed): 100; Plant response rating, Chickweed (chickweed; [11]): 100; Plant response rating, Chickweed (chickweed; [12]): 100
CCCc1cc(C(=O)NC2CC2)nn1Cc1ccnc(OC(F)F)c1 [Compound 205] | 90 | 80 | 0 | 100 | 100 | 100 | 100 | 100 | 40 | 65 | 98 | 100 | 100 | 55 | 100 | 5 | 5 | 15 | 15 | 65 | Plant response rating, Crabgrass, Large (crabgrass, large; 125 g ai/ha, 13 to 15 days): 100; Crabgrass, Large plant response rating (crabgrass, large; [13]): 100; Plant response rating, Morningglory (morningglory; 125 g ai/ha, 13 to 15 days): 100; Morningglory plant response rating (morningglory; [13]): 100; Plant response rating, Nutsedge, Yellow (nutsedge, yellow [2]; 125 g ai/ha, 13 to 15 days): 75; Nutsedge, Yellow plant response rating (nutsedge, yellow [2]; [13]): 90; Barnyardgrass plant response rating (barnyardgrass [3]; [7]): 85; Plant response rating, Barnyardgrass (barnyardgrass [3]; 125 g ai/ha, 13 to 15 days): 100; Barnyardgrass plant response rating (barnyardgrass [3]; [13]): 100; Plant response rating, Oilseed Rape (oilseed rape; 125 g ai/ha, 13 to 15 days): 100; Oilseed Rape plant response rating (oilseed rape; [13]): 100; Plant response rating, Velvetleaf (velvetleaf; 125 g ai/ha, 13 to 15 days): 100; Velvetleaf plant response rating (velvetleaf; [13]): 100; Chickweed plant response rating (chickweed): 90; Plant response rating, Chickweed (chickweed; [11]): 100; Plant response rating, Chickweed (chickweed; [12]): 98
